Test: Concentration required for 50% inhibition of Shiga-like toxin type 1 (Stx1A1)

SMILES | IC50
Cc1nc2c(=O)[nH]c(N)nc2o1 | 1000 µM
Cc1cc2c(O)[nH]c(N)nc-2n1 | 4300 µM
Nc1nc2c(c(=O)[nH]1)CC=N2 | 2000 µM
Nc1nc(O)c2nc(CNc3ccc(C(=O)O)cc3)cnc2n1 [PTEROIC ACID] | 600 µM

Reference: ChEMBL document CHEMBL1135433 (J Med Chem, 2002)
